In patent US20090069418A1, “Compositions and Methods for the Treatment of Disorders Associated with Aberrant Vasodilation” (priority 2007, published 2009):

Assays:
[1] = molecular target: T1, soluble epoxide hydrolase (Mus musculus, UniProt P34914); assay: Soluble epoxide hydrolase activity assay in brain after systemic AUDA-BE ([3H]-tDPPO substrate); type: in vivo
T1 construct: from tissue; host or cells: mouse brain (C57Bl/6), cytosolic or peroxisomal fractions
T1 sequence (P34914 1-554): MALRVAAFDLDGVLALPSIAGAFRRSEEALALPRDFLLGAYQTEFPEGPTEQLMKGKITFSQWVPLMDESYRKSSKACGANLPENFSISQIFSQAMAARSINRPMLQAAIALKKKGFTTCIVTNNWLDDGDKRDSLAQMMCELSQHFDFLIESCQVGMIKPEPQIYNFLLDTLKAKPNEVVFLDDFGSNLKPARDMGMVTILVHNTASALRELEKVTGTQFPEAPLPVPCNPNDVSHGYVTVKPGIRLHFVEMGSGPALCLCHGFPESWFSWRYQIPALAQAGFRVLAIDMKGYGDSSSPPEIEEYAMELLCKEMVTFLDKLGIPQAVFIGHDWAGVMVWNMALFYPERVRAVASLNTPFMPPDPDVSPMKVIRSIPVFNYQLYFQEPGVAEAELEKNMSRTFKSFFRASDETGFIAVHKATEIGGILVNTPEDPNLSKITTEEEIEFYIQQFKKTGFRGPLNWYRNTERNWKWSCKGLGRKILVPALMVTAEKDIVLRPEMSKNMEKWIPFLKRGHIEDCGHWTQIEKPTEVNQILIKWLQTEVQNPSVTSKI
Procedure: Rate of hydration of tDPPO is determined by liquid scintillation spectroscopy after differential extraction of the epoxide and diol. Briefly, cytosolic or peroxisomal fractions were incubated at 37° C. in 100 μL incubation mixtures containing sodium phosphate buffer (90 mmol/L, pH 7.4) and tDPPO (1 to 50 μmol/L in 1 μL dimethylformamide). Incubations were stopped after 5 minutes with the addition of 60 μL methanol and 200 μL isooctane. Zero-time and zero-protein incubations served as blanks. Incubations were vortexed vigorously to extract the substrate into the isooctane (the diol metabolite remains in the aqueous phase). A known aliquot of the aqueous phase was removed and added to 1 mL scintillation cocktail for scintillation counting. Extraction efficiency exceeded 91%.
It should be noted that these sEH inhibitors are reversible transition state inhibitors. Thus, the levels of inhibition are certain to be above those detected due to dilution of the sample during work up.

epoxide hydrolase = assay: Hydrolase activity in brain tissue ex vivo, conversion of 14,15-EET to 14,15-DHET (ELISA); type: biochemical, mouse; conditions: both WT and KO brain tissue
Procedure: Total 14,15-DHET in blood was measured with a commercial ELISA (Detroit R&D, Inc, Detroit, Mich.) (Koerner et al. (2007) J. Neurosci., 27:4642-4649). Briefly, plasma lipids were extracted 3 times with ethyl acetate under acidic conditions (pH 3 to 4), followed by saponification with 20% KOH. Samples were dried and resuspended in methanol, and 14,15-DHET concentration was measured according to the manufacturer's instructions. The ELISA was also used to measure hydrolase activity in brain tissue (perfused to remove blood) incubated with 1 μM 14,15-EET for 30 minutes. Brian tissue was homogenized in 4 volumes of ice-cold buffer (20 mmol/L Tris HCL pH 7.4, 0.32 mol/L sucrose, 1 mmol/L EDTA), centrifuged at 1000 g for 10 minutes, and supernatant was further centrifuged at 10,000 g for 20 minutes.

**Q.** What does the source list for `CCCCOC(=O)CCCCCCCCCCCNC(=O)NC12CC3CC(CC(C3)C1)C2` [AUDA-BE, 12-(3-adamantane-1-yl-ureido)-dodecanoic acid butyl ester]?
**A.** average brain sEH activity over 24 hours ([1]; AUDA-BE 10 mg/kg intraperitoneally, 1, 3, 6 and 24 hours, vehicle 1.92±0.06 nmol/mg): 1.56±0.13 nmol/mg protein; inhibition at 10 mg/kg ([1]; mouse, ip, read-out: inhibition of brain sEH activity): ≥ 20%; metabolism of 14,15-EET to 14,15-DHET in brain tissue (epoxide hydrolase): inhibited
